# Experimental data: patent US20260062388A1, “POLYMORPHIC FORM OF NEPICASTAT ACID ADDITION SALT, PREPARATION METHOD THEREFOR AND USE THEREOF” (Jiangsu Yahong Meditech Co., Ltd., priority 2022, published 2026)
# Tests used:
# [1] = Bioavailability test, intravenous and oral administration to mice; conditions: mouse, in vivo, IV 15 mg/kg, PO 30 mg/kg
# From the text: The crystal forms I and II of hydrochloride salt of nepicastat and the crystal forms of other acid addition salts of nepicastat in Table 31 were taken, and administered intravenously and orally to mice respectively, wherein: • the formulation for intravenous (IV) administration was: 5% (v/v) DMSO+10% (v/v) Solutol HS 15+85% (v/v) physiological saline; • the formulation for oral (PO) administration was: 0.5% (v/v) MC4000 aqueous solution (MC: methylcellulose).
# The specific administration was as follows: • Experiment: three mice were subjected to the test in parallel for each formulation; • Body weight: about 30 g • Administration route: IV; PO • Dose administered: IV-15 mg/kg; PO-30 mg/kg; • Before administration: fasting for 12 hours before administration, and allowing mice to drink water; • After administration: allowing mice to drink water, and feeding within 2 hours after administration; • Blood collecting site: the vein at a hind leg • Blood collecting times: IV—0.083, 0.25, 0.5, 1, 2, 4, 6, 8, 24 h; • PO—0.25, 0.5, 1, 2, 4, 6, 8, 24 h.
# Due to very close solubilities of the crystal forms I and II of hydrochloride salt of nepicastat in water, it was found in the experiment that both of them obtained clear solutions upon preparing the administration samples.
# [2] = Dynamic vapor sorption (DVS) hygroscopicity; assay type: physicochemical
# Protocol: DVS curves are acquired on DVS Intrinsic from SMS (Surface Measurement Systems). • Testing temperature: 25° C. • Sample amount: 10-20 mg • dm/dt: 0.002%/min; • RH range: 0% RH-95% RH-0% RH • RH gradient: 10%
# [3] = Approximate solubility test on crystal forms of hydrochloride salt of nepicastat at room temperature; assay type: physicochemical; conditions: thermodynamic from solid, room temperature
# [4] = Stability studies under relatively harsh conditions (40° C., 40° C./75% RH, 60° C., 60° C./75% RH) on crystal forms I and II; assay type: physicochemical; conditions: for crystal form stability (XRPD pattern): 15 days
# [5] = Long-term stability test (25° C./60% RH) of crystal form I; assay type: physicochemical; conditions: for Moisture (KF, w/w %) / Related substances (w/w %): Total impurities / Chiral purity (%) / Content (HPLC, w/w %): 25° C. ± 2° C./60% RH ± 5% RH; for Chiral purity (%): S-enantiomer; for Content (HPLC, w/w %): deducting residual solvent(s) and moisture
# [6] = Accelerated stability test (40° C./75% RH) of crystal form I; assay type: physicochemical; conditions: for Moisture (KF, w/w %) / Related substances (w/w %): Total impurities / Chiral purity (%) / Content (HPLC, w/w %): 40° C. ± 2° C./75% RH ± 5% RH; for Chiral purity (%): S-enantiomer; for Content (HPLC, w/w %): deducting residual solvent(s) and moisture
smiles,measurement,setting,value
"Cl.NCc1c[nH]c(=S)n1[C@H]1CCc2c(F)cc(F)cc2C1.O [crystal form I of hydrochloride salt, (S)-5-aminomethyl-1-(5,7-difluoro-1,2,3,4-tetrahydronaphthalen-2-yl)-1,3-dihydroimidazole-2-thione hydrochloride monohydrate]",bioavailability,[1],> 70%
same,hygroscopicity of the sample,"[2]; DVS, 0% RH to 80% RH",slight hygroscopicity
same,weight gain by hygroscopicity,"[2]; DVS, from 0% RH to 80% RH, 25° C.",about 1.036%
same,crystal form before and after the DVS test,[2]; XRPD before and after DVS,remained unchanged
same,solubility,"[3]; aqueous with cosolvent or surfactant or cyclodextrin, solvent 15% Isopropanol",20000 to 27000 µg/mL
same,solubility,"[3]; aqueous with cosolvent or surfactant or cyclodextrin, solvent 30% Methanol",21000 to 42000 µg/mL
same,solubility,"[3]; aqueous with cosolvent or surfactant or cyclodextrin, solvent 50% Acetonitrile",80000 to 100000 µg/mL
same,solubility,"[3]; aqueous with cosolvent or surfactant or cyclodextrin, solvent 50% Ethanol",20000 to 27000 µg/mL
same,solubility,"[3]; aqueous with cosolvent or surfactant or cyclodextrin, solvent 50% Isopropanol",40000 to 80000 µg/mL
same,solubility,"[3]; aqueous with cosolvent or surfactant or cyclodextrin, solvent 50% Tetrahydrofuran",100000 to 130000 µg/mL
same,solubility,"[3]; organic solvent or mixture, solvent 1,4-Dioxane",< 1000 µg/mL
same,solubility,"[3]; organic solvent or mixture, solvent 2-Butanone",< 1000 µg/mL
same,solubility,"[3]; organic solvent or mixture, solvent 2-Methyltetrahydrofuran",< 1000 µg/mL
same,solubility,"[3]; organic solvent or mixture, solvent Acetone",< 1000 µg/mL
same,solubility,"[3]; organic solvent or mixture, solvent Acetonitrile",40 µg/mL
same,solubility,"[3]; organic solvent or mixture, solvent Chloroform",380 µg/mL
same,solubility,"[3]; organic solvent or mixture, solvent Dichloromethane",< 10 µg/mL
same,solubility,"[3]; organic solvent or mixture, solvent Ethanol",6500 µg/mL
same,solubility,"[3]; organic solvent or mixture, solvent Ethyl acetate",10 µg/mL
same,solubility,"[3]; organic solvent or mixture, solvent Isopropanol",6000 µg/mL
same,solubility,"[3]; organic solvent or mixture, solvent Methanol",33000 µg/mL
same,solubility,"[3]; organic solvent or mixture, solvent Methyl tert-butyl ether",< 1000 µg/mL
same,solubility,"[3]; organic solvent or mixture, solvent N-hexane",< 10 µg/mL
same,solubility,"[3]; organic solvent or mixture, solvent Propanol",11700 µg/mL
same,solubility,"[3]; organic solvent or mixture, solvent Propylene carbonate",140 µg/mL
same,solubility,"[3]; organic solvent or mixture, solvent Tetrahydrofuran",90 µg/mL
same,solubility,[3]; solvent Purified water,7400 µg/mL
same,crystal form stability (XRPD pattern),[4]; 60° C.,stable
same,crystal form stability (XRPD pattern),[4]; 60° C./75% RH,stable
same,impurity produced due to degradation,[4]; solid left at 60° C. for 15 days,no significant impurity to produce due to degradation
same,impurity produced due to degradation,[4]; solid left at 60° C./75% RH for 15 days,no significant impurity to produce due to degradation
same,"Moisture (KF, w/w %)",[5]; 3 months,5.7 w/w %
same,Related substances (w/w %): Total impurities,[5]; 3 months,not detected
same,Chiral purity (%),[5]; 3 months,99.8%
same,"Content (HPLC, w/w %)",[5]; 3 months,100.8 w/w %
same,"Moisture (KF, w/w %)",[5]; 6 months,6.0 w/w %
same,Related substances (w/w %): Total impurities,[5]; 6 months,not detected
same,Chiral purity (%),[5]; 6 months,99.8%
same,"Content (HPLC, w/w %)",[5]; 6 months,100.3 w/w %
same,"Moisture (KF, w/w %)",[5]; 9 months,6.3 w/w %
same,Related substances (w/w %): Total impurities,[5]; 9 months,not detected
same,Chiral purity (%),[5]; 9 months,99.8%
same,"Content (HPLC, w/w %)",[5]; 9 months,100.5 w/w %
same,"Moisture (KF, w/w %)",[5]; 12 months,6.2 w/w %
same,Related substances (w/w %): Total impurities,[5]; 12 months,not detected
same,Chiral purity (%),[5]; 12 months,99.8%
same,"Content (HPLC, w/w %)",[5]; 12 months,100.0 w/w %
same,"Moisture (KF, w/w %)",[5]; Initial,5.9 w/w %
same,Related substances (w/w %): Total impurities,[5]; Initial,not detected
same,Chiral purity (%),[5]; Initial,99.8%
same,"Content (HPLC, w/w %)",[5]; Initial,100.3 w/w %
same,long-term stability,"[5]; 25° C./60% RH, double-layer polyethylene bag",no significant change in the detection results
same,"Moisture (KF, w/w %)",[6]; 1 months,5.8 w/w %
same,Related substances (w/w %): Total impurities,[6]; 1 months,not detected
same,Chiral purity (%),[6]; 1 months,99.8%
same,"Content (HPLC, w/w %)",[6]; 1 months,100.4 w/w %
same,"Moisture (KF, w/w %)",[6]; 2 months,5.7 w/w %
same,Related substances (w/w %): Total impurities,[6]; 2 months,not detected
same,Chiral purity (%),[6]; 2 months,99.8%
same,"Content (HPLC, w/w %)",[6]; 2 months,99.6 w/w %
same,"Moisture (KF, w/w %)",[6]; 3 months,5.7 w/w %
same,Related substances (w/w %): Total impurities,[6]; 3 months,not detected
same,Chiral purity (%),[6]; 3 months,99.8%
same,"Content (HPLC, w/w %)",[6]; 3 months,100.4 w/w %
same,"Moisture (KF, w/w %)",[6]; 6 months,5.8 w/w %
same,Related substances (w/w %): Total impurities,[6]; 6 months,not detected
same,Chiral purity (%),[6]; 6 months,99.8%
same,"Content (HPLC, w/w %)",[6]; 6 months,100.1 w/w %
same,"Moisture (KF, w/w %)",[6]; Initial,5.9 w/w %
same,Related substances (w/w %): Total impurities,[6]; Initial,not detected
same,Chiral purity (%),[6]; Initial,99.8%
same,"Content (HPLC, w/w %)",[6]; Initial,100.3 w/w %
same,accelerated stability,"[6]; 40° C./75% RH, double-layer polyethylene bag",no significant change in the detection results
